Source: paper PMC9938908, “Unraveling topoisomerase IA gate dynamics in presence of PPEF and its preclinical evaluation against multidrug-resistant pathogens” (Communications Biology, 2023)

Legend:
Type in all cases: biochemical
[1] = molecular target: T1, S. aureus topoisomerase IA (SaTopoIA) (Staphylococcus aureus, UniProt Q5HGI2); test: DNA relaxation assay with pHOT-1 plasmid; also ssDNA religation and plasmid cleavage assays
T1 construct: gene topA; N-terminal His-tag, pET28a(+), 2070 bp, 79 kDa
T1 sequence (Q5HGI2 1-689): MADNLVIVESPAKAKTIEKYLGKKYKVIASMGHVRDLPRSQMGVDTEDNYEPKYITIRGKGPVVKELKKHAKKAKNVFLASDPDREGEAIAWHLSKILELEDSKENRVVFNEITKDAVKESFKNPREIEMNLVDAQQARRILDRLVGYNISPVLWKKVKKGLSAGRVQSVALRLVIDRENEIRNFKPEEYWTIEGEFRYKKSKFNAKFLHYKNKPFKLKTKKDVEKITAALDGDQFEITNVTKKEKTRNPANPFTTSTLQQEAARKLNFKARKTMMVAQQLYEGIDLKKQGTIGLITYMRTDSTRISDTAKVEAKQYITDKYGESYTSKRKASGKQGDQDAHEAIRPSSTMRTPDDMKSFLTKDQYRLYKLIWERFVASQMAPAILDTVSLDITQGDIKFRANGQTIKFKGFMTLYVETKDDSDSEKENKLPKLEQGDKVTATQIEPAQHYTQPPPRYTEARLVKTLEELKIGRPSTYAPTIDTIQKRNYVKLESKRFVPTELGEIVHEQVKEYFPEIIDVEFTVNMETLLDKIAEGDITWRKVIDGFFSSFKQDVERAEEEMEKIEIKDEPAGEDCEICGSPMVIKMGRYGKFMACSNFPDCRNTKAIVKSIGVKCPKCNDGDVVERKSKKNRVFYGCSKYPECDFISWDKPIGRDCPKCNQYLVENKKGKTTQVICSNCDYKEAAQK

[2] = molecular target: T2, E. coli topoisomerase III (EcTopoIII) (Escherichia coli, UniProt P14294); test: DNA relaxation assay with pHOT-1 plasmid, agarose gel
T2 construct: gene topB; N-terminal His-tag, pET28a(+), 1962 bp, 73 kDa
T2 sequence (P14294 whole entry): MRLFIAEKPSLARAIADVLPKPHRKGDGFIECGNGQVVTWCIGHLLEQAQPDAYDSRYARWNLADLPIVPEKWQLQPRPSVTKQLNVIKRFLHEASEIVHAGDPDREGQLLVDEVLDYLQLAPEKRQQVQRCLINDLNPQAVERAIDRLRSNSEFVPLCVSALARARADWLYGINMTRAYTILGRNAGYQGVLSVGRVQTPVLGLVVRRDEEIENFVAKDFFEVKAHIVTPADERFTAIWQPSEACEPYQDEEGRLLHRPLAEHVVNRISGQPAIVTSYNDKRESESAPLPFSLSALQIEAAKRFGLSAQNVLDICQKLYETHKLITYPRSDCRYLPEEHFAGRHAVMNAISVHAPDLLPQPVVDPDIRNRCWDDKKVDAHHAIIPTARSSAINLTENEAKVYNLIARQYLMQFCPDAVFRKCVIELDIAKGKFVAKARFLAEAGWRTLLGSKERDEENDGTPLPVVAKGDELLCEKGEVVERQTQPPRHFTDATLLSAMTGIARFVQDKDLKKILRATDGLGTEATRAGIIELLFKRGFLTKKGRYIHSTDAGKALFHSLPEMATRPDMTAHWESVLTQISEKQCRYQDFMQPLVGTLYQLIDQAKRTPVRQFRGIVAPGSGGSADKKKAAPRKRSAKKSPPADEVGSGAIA

[3] = molecular target: T3, E. coli topoisomerase IA (EcTopoIA) (Escherichia coli, UniProt P06612); test: as above
T3 construct: gene topA; expressed in pET28a(+), purified
T3 sequence (P06612 whole entry): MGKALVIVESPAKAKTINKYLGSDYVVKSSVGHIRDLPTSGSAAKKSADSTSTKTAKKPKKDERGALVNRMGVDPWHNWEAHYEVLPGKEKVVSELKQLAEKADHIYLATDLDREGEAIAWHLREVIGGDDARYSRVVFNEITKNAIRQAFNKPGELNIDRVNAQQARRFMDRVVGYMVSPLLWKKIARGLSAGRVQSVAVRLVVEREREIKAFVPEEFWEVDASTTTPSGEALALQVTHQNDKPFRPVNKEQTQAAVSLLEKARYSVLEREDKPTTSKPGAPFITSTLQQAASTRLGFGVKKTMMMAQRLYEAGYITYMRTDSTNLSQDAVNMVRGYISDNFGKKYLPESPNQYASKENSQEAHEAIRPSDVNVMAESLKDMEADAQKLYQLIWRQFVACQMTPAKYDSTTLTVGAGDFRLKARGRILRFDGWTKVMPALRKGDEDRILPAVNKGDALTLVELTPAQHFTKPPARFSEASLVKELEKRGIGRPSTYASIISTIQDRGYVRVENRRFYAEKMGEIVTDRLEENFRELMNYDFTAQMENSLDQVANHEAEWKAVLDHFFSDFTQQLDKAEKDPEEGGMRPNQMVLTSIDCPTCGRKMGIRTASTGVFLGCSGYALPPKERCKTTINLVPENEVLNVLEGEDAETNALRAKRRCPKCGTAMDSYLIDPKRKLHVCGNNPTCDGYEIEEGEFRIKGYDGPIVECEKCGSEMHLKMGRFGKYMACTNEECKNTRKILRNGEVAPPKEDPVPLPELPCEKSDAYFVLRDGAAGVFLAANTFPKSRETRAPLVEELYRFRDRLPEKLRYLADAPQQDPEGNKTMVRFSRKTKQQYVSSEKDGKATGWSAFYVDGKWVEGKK

[4] = molecular target: T4, A. baumannii topoisomerase IA (AbTopoIA) (Acinetobacter baumannii, UniProt A0ABX6CBM5); test: as above
T4 construct: gene topA; N-terminal His-tag, pET28a(+), 2637 bp, 98 kDa
T4 sequence (A0ABX6CBM5 1-878): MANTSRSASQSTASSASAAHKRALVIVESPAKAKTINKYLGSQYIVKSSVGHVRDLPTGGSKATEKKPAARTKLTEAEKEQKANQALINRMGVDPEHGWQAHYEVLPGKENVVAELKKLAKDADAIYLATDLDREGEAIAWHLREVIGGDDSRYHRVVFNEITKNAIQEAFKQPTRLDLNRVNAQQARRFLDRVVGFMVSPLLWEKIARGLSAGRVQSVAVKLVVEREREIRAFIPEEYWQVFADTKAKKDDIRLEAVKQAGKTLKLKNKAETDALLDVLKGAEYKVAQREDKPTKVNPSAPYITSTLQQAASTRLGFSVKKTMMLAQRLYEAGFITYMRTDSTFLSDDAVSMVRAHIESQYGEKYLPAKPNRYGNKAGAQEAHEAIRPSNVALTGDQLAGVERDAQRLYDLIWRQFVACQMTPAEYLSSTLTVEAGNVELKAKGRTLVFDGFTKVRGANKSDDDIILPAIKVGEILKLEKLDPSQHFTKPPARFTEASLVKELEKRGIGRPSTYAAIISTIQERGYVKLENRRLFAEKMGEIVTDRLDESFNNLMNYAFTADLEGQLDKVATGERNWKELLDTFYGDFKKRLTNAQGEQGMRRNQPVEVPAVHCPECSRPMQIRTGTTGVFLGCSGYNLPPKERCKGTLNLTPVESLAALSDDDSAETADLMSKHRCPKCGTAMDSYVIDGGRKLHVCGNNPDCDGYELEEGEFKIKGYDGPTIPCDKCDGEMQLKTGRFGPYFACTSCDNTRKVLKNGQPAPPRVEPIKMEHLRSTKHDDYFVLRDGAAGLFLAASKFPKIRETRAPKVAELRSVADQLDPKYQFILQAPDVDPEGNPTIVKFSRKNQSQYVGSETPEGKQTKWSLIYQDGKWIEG

SMILES	IC50 [1]	IC50 [2]	IC50 [3]	IC50 [4]
CCCCN1CCN(c2ccc3[nH]c(-c4ccc5[nH]c(-c6ccc(OC)c(OC)c6)nc5c4)nc3c2)CC1 [BPVF, 5-(4-butylpiperazin-1-yl)-2′-(3,4-dimethoxyphenyl)-1H,1′H-2,5′ bibenzo[d]imidazole]	41.4 µM	1.96 µM	–	–
CCCN1CCN(c2ccc3nc(-c4ccc5nc(-c6ccc(OCC)cc6)[nH]c5c4)[nH]c3c2)CC1 [PPEF, 2′-(4-ethoxyphenyl)-5-(4-propylpiperazin-1-yl)-1H,1′H-2,5′-bibenzo(d)imidazole]	15.5 µM	1.58 µM	2.71 µM	9.48 µM
